Test system: DIO mice
Experiment: OGTT with co-administration of 6bK and sitagliptin
Format: in vivo, mouse
Details: OGTT 3.0 g kg^-1, sitagliptin 4 mg kg^-1 oral, 6bK 40 mg kg^-1

Q: How did the “reduction of blood glucose profile area compared to vehicle” value turn out when N[C@@H](CC(=O)N1CCn2c(nnc2C(F)(F)F)C1)Cc1cc(F)c(F)cc1F [sitagliptin] was run?
A: 60–64%
